From ChEMBL document CHEMBL1130322, “Anticancer and antiviral effects and inactivation of S-adenosyl-L-homocysteine hydrolase with 5'-carboxaldehydes and oximes synthesized from adenosine and sugar-modified analogues” (J Med Chem, 1997)
In brackets after ≈: the same amount, converted by molar mass.

Experiments:
[1] = system: Vero; test: cells; details: Chlorocebus sabaeus
[2] = system: Human alphaherpesvirus 2; test: microbe, parasite or virus in culture
[3] = system: Vaccinia virus
[4] = system: Human alphaherpesvirus 1; test: microbe, parasite or virus in culture
[5] = system: Human alphaherpesvirus 1; test: microbe, parasite or virus in culture; remark: listed apart in the source
[6] = system: Vero; test: cells; details: Chlorocebus sabaeus; remark: listed apart in the source
[7] = system: Human alphaherpesvirus 1; test: microbe, parasite or virus in culture; remark: listed apart in the source
[8] = system: E6SM; test: Minimum inhibitory concentration required to effect a microscopically visible change of cell morphology in human embryonic skin-muscle (E6SM) cell culture.; type: functional; set-up: unit not given here
[9] = system: Vero; test: cells; details: Chlorocebus sabaeus; remark: listed apart in the source
[10] = system: Vero; test: cells; details: Chlorocebus sabaeus; remark: listed apart in the source
[11] = system: Vero; test: cells; details: Chlorocebus sabaeus; remark: listed apart in the source
[12] = system: Respiratory syncytial virus; test: microbe, parasite or virus in culture; details: human respiratory syncytial virus, HeLa
[13] = system: Vero; test: cells; details: Chlorocebus sabaeus; remark: listed apart in the source
[14] = system: HeLa; test: Minimum inhibitory concentration required to effect a microscopically visible change of cell morphology in HeLa cell culture.; type: functional, Homo sapiens; set-up: unit not given here
[15] = target: T1, Adenosylhomocysteinase (Homo sapiens, UniProt P23526)
Target sequence in this assay (P23526 2-432 limits assumed): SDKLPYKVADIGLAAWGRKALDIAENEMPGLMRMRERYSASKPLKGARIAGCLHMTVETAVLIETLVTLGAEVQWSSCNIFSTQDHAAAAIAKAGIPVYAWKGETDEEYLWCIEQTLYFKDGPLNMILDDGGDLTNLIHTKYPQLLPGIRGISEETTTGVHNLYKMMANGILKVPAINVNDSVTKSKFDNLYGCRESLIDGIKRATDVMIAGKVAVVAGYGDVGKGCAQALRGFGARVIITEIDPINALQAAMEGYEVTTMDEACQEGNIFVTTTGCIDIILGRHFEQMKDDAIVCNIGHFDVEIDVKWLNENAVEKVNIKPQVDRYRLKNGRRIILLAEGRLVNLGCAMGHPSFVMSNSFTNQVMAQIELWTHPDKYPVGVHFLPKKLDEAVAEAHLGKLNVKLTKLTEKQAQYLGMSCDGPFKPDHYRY

[16] = system: MDCK; type: functional, Canis lupus familiaris; set-up: unit not given here
[17] = system: HeLa; test: cells; details: Homo sapiens
[18] = system: HeLa; test: cells; details: Homo sapiens; remark: listed apart in the source
[19] = system: CCRF-CEM; test: cells; details: Homo sapiens
[20] = system: MDCK; test: cells; details: Canis lupus familiaris
[21] = system: HEL; test: (§1) 50% Cytostatic concentration required to inhibit human erythroleukemic (HEL) cell proliferation; type: functional
[22] = system: L1210; test: cells; details: Mus musculus
[23] = system: Human betaherpesvirus 5; test: microbe, parasite or virus in culture
[24] = system: Human betaherpesvirus 5; test: microbe, parasite or virus in culture; remark: listed apart in the source
[25] = system: MOLT-4; test: cells; details: Homo sapiens
[26] = target: T1, Adenosylhomocysteinase; remark: listed apart in the source
Target sequence in this assay (P23526 whole entry): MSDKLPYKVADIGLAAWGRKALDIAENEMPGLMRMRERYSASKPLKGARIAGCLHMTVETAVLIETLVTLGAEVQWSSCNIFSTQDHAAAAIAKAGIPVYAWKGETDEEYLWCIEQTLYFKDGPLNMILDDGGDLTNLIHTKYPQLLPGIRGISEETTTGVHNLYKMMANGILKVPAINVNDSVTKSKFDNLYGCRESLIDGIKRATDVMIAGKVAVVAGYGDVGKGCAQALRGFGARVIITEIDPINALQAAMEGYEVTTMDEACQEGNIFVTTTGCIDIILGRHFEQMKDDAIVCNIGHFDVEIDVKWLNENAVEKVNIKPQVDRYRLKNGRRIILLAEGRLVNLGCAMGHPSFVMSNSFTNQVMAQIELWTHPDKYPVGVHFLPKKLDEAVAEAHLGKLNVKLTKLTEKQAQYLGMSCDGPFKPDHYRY

[27] = system: Vero; test: Minimum inhibitory concentration required to effect a microscopically visible change of cell morphology in Vero cell culture.; type: functional, Chlorocebus sabaeus; set-up: unit not given here
[28] = system: MDCK; test: cells; details: Canis lupus familiaris; remark: listed apart in the source
[29] = system: FM3A; test: cells; details: Mus musculus
[30] = system: Human alphaherpesvirus 1; test: microbe, parasite or virus in culture; remark: listed apart in the source
[31] = system: HEL; test: as §1; type: functional; set-up: unit not given here
[32] = system: Human alphaherpesvirus 1; test: microbe, parasite or virus in culture; remark: listed apart in the source
[33] = system: Human alphaherpesvirus 1; test: microbe, parasite or virus in culture; remark: listed apart in the source

Compound | EC50 [1] [µg/mL] | EC50 [2] [µg/mL] | EC50 [3] [µg/mL] | EC50 [4] [µg/mL] | EC50 [5] [µg/mL] | EC50 [6] [µg/mL] | EC50 [7] [µg/mL] | MIC [8] | EC50 [9] [µg/mL] | EC50 [10] [µg/mL] | EC50 [11] [µg/mL] | k2 [15] [min⁻¹] | IC50 [19] [µg/mL] | IC50 [22] [µg/mL] | EC50 [23] [µg/mL] | EC50 [24] [µg/mL] | IC50 [25] [µg/mL] | Ki [26] [nM] | IC50 [29] [µg/mL] | CC50 [31] | further results
Nc1ccnc2c1ncn2[C@@H]1O[C@H](CO)[C@@H](O)[C@H]1O | 0.7 (≈ 2.63 µM) | > 400 | 0.7 (≈ 2.63 µM) | 40 (≈ 150 µM) | > 400 | 4 (≈ 15 µM) | > 400 | >400 | 4 (≈ 15 µM) | 0.2 (≈ 0.751 µM) | > 400 |  |  |  |  |  |  |  |  |  | 
CCO/N=C/[C@H]1OC(n2cnc3c(N)ncnc32)[C@H](O)[C@@H]1O (some centres not stated) | > 200 | > 200 | 100 (≈ 324 µM) | > 200 | > 200 | > 100 | > 200 | >200 | > 100 | > 100 | > 100 | 0.037 | > 500 | 295 (≈ 957 µM) | > 10 | > 4 | > 500 | 111 | > 500 |  | EC50 [12]: > 200 µg/mL; EC50 [13]: > 100 µg/mL; MIC [14]: >200; MIC [16]: 4; EC50 [17]: > 200 µg/mL; EC50 [18]: > 200 µg/mL; EC50 [20]: 1.2 µg/mL (≈ 3.89 µM); CC50 [21]: >50; MIC [27]: >200; EC50 [28]: 0.8 µg/mL (≈ 2.59 µM)
Nc1ncnc2c1ncn2C[C@H](O)CO [(S)-DHPA] | 20 (≈ 95.6 µM) | > 400 | 20 (≈ 95.6 µM) | > 40 | > 400 | > 400 | > 400 | >400 | 70 (≈ 335 µM) | 70 (≈ 335 µM) | > 400 |  |  |  |  |  |  |  |  |  | 
Nc1ncnc2c1ncn2[C@@H]1O[C@@H](C=NO)[C@@H](O)[C@H]1O |  |  |  |  |  |  |  |  |  |  |  | 0.13 |  |  |  |  |  | 224 |  |  | 
Nc1ncnc2c1ncn2[C@@H]1O[C@H](C=NO)[C@@H](O)[C@@H]1O | > 100 | > 100 | 20 (≈ 71.4 µM) | 70 (≈ 250 µM) | 70 (≈ 250 µM) | > 40 | > 100 | >200 | > 40 | > 40 | > 40 |  | 15 (≈ 53.5 µM) | 10.5 (≈ 37.5 µM) | > 10 | > 10 | 16.4 (≈ 58.5 µM) |  | 12.7 (≈ 45.3 µM) |  | CC50 [21]: 34
Nc1ncnc2c1ncn2C1O[C@H](C(O)O)[C@@H](O)[C@@H]1O (some centres not stated) | > 400 | > 400 | 20 (≈ 70.6 µM) |  | 300 (≈ 1060 µM) | > 200 |  | >400 | 300 (≈ 1060 µM) | 150 (≈ 530 µM) | > 200 |  | 118 (≈ 417 µM) | 156 (≈ 551 µM) | > 40 | > 40 | > 200 |  | 125 (≈ 441 µM) | >50 | EC50 [30]: > 400 µg/mL; EC50 [32]: > 400 µg/mL
Nc1ncnc2c1ncn2[C@@H]1O[C@H](C=O)[C@@H](O)[C@H]1O | 300 (≈ 1130 µM) | > 400 | 70 (≈ 264 µM) | > 400 | > 400 | > 200 | > 400 | >400 | > 200 | > 200 | > 200 |  | 7.3 (≈ 27.5 µM) | 9.71 (≈ 36.6 µM) | > 40 | > 40 | 41.5 (≈ 156 µM) |  | 15 (≈ 56.6 µM) | >50 | 
Nc1ncnc2c1ncn2C1CC(O)C(C=O)O1 (configuration not stated) | > 400 | > 400 | > 400 | > 400 | > 400 | > 200 | > 400 | >400 | > 200 | 70 (≈ 281 µM) | > 200 |  | 17.8 (≈ 71.4 µM) | 6.64 (≈ 26.6 µM) | > 40 | > 40 | 4.96 (≈ 19.9 µM) |  | 50.9 (≈ 204 µM) | >50 | 
Nc1ncnc2c1ncn2[C@@H]1O[C@@H](C=O)[C@@H](O)[C@H]1O |  |  |  |  |  |  |  |  |  |  |  | 0.22 |  |  |  |  |  | 43 |  |  | 
Nc1ncnc2c1ncn2C1OC(C=O)CC1O (configuration not stated) | > 400 | > 400 | > 400 | > 400 | > 400 | > 200 | > 100 | >400 | > 200 | > 400 | > 200 |  | > 200 | > 200 | > 40 | > 40 | > 200 |  | > 200 | >50 | 
Nc1ncnc2c1ncn2C1CC(O)C(/C=N/O)O1 (configuration not stated) | > 100 | > 100 | > 100 | > 100 | > 100 | > 100 | > 100 | 200 | > 100 | > 100 | > 100 |  | 13.8 (≈ 52.2 µM) | 4.6 (≈ 17.4 µM) | 0.6 (≈ 2.27 µM) | 1 (≈ 3.78 µM) | 17 (≈ 64.3 µM) |  | 11.2 (≈ 42.4 µM) | 14 | 
Nc1ncnc2c1ncn2C1OC(/C=N/O)CC1O (configuration not stated) | > 400 | > 400 | 300 (≈ 1140 µM) | > 400 | > 400 | > 400 | > 400 | >400 | 300 (≈ 1140 µM) | > 400 | > 400 |  | 185 (≈ 700 µM) | 180 (≈ 681 µM) | 10 (≈ 37.8 µM) | 40 (≈ 151 µM) | > 200 |  | > 200 | >50 | 
CO/N=C/[C@H]1OC(n2cnc3c(N)ncnc32)[C@H](O)[C@@H]1O (some centres not stated) | 150 (≈ 510 µM) | > 200 | 100 (≈ 340 µM) |  | > 200 | > 100 |  | 400 | > 100 | > 100 | > 100 | 0.048 | 330 (≈ 1120 µM) | 271 (≈ 921 µM) | > 10 | > 10 | 218 (≈ 741 µM) | 94.6 | 19 (≈ 64.6 µM) | >50 | EC50 [30]: > 200 µg/mL; EC50 [12]: > 200 µg/mL; EC50 [13]: > 100 µg/mL; MIC [14]: >200; MIC [16]: 20; EC50 [17]: > 200 µg/mL; EC50 [18]: > 200 µg/mL; EC50 [20]: 4 µg/mL (≈ 13.6 µM); MIC [27]: >200; EC50 [28]: 0.8 µg/mL (≈ 2.72 µM); EC50 [32]: > 200 µg/mL
Nc1ncnc2c1ncn2[C@@H]1O[C@H](C=NO)[C@@H](O)[C@H]1O | > 1 | > 4 | > 4 | > 4 | > 4 | > 0.4 | > 4 | 7 | > 1 | > 1 | > 0.4 | 0.16 | 2.9 (≈ 10.3 µM) | 1.8 (≈ 6.42 µM) | 0.25 (≈ 0.892 µM) | 0.3 (≈ 1.07 µM) | 5.4 (≈ 19.3 µM) | 670 | 2.3 (≈ 8.21 µM) |  | EC50 [12]: < 4 µg/mL; EC50 [13]: > 0.4 µg/mL; MIC [14]: >4; MIC [16]: 0.8; EC50 [17]: > 40 µg/mL; EC50 [18]: > 4 µg/mL; EC50 [20]: > 0.8 µg/mL; CC50 [21]: 0.7; MIC [27]: >1; EC50 [28]: 0.8 µg/mL (≈ 2.85 µM)
O=c1[nH]c(=O)n([C@H]2C[C@H](O)[C@@H](CO)O2)cc1/C=C/Br [BRIVUDINE] | > 400 |  | 0.7 (≈ 2.1 µM) |  | 0.04 (≈ 0.12 µM) | > 400 |  | >400 | > 400 | > 400 | > 400 |  |  |  | > 40 | > 40 |  |  |  | >40 | EC50 [30]: > 400 µg/mL; EC50 [33]: > 400 µg/mL; EC50 [32]: 10 µg/mL (≈ 30 µM)
Nc1ncnc2c1ncn2C1O[C@H](/C=N/OCc2ccccc2)[C@@H](O)[C@H]1O (some centres not stated) | > 40 | > 40 | 2 (≈ 5.4 µM) | > 40 | > 40 | > 100 | > 40 | 100 | > 100 | > 100 | > 100 | 0.036 | 136 (≈ 367 µM) | 187 (≈ 505 µM) | > 10 | > 10 | 118 (≈ 319 µM) | 101 | 340 (≈ 918 µM) | 33 | EC50 [12]: > 200 µg/mL; EC50 [13]: > 100 µg/mL; MIC [14]: >200; MIC [16]: 100; EC50 [17]: > 200 µg/mL; EC50 [18]: > 200 µg/mL; EC50 [20]: 20 µg/mL (≈ 54 µM); MIC [27]: >200; EC50 [28]: 20 µg/mL (≈ 54 µM)
